Laboratory results: PubChem BioAssay AID212 (DTP/NCI, 2004)
Several values for one entry are separate records, joined by “and”; a condition that tells them apart may be missing. Identical values can stand only once. Results filed as inconclusive are left out. *1 amine or outer side, *2 acyl side, *3 side chain or, on linkers, in order; H or OH if unused. Where a SMILES comes first, the peptide text is derived from it. Bridges are numbered along the chain shown (N, C = ends). Roman numbers before positions name the chains, in order. [ ]: non-standard residue; d: D form. Actinocin(1to9) = Cc1c2oc3c(C)ccc(C(=O)[*:2])c3nc-2c(C(=O)[*:1])c(N)c1=O; NMeV = CN[CH](C(=O)O)C(C)C; Aze = O=C(O)[CH]1CCN1; Sar = CNCC(=O)O

System: BDF1 mice, colon carcinoma 38 sc, T/C %
Assay: NCI In Vivo Anticancer Drug Screen. Data for tumor model Colon Carcinoma 38 (subcutaneous) in B6D2F1 (BDF1) mice
Details: endpoint: median tumor weight (est.), higher = larger tumour
Summary of the method: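 Compound antitumor activity was assessed in mice carrying transplantable tumors. Survival or tumor size was recorded, and each value is the treated-group measurement divided by that of the vehicle-treated control group.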

[1] = dose: 3.12 mg/kg/injection, schedule: Q07DX002 (ip), vehicle: saline
[2] = dose: 6.25 mg/kg/injection, schedule: Q07DX002 (ip), vehicle: saline
[3] = dose: 12.5 mg/kg/injection, schedule: Q07DX002 (ip), vehicle: Klucel (hydroxypropylcellulose) (HPC)
[4] = dose: 25.0 mg/kg/injection, schedule: Q07DX002 (ip), vehicle: Klucel (hydroxypropylcellulose) (HPC)
[5] = dose: 100.0 mg/kg/injection, schedule: Q07DX002 (ip), vehicle: Klucel (hydroxypropylcellulose) (HPC)
[6] = dose: 50.0 mg/kg/injection, schedule: Q07DX002 (ip), vehicle: Klucel (hydroxypropylcellulose) (HPC)
[7] = dose: 200.0 mg/kg/injection, schedule: Q07DX002 (ip), vehicle: Klucel (hydroxypropylcellulose) (HPC)
[8] = dose: 400.0 mg/kg/injection, schedule: Q07DX002 (ip), vehicle: Klucel (hydroxypropylcellulose) (HPC)
[9] = dose: 25.0 mg/kg/injection, schedule: Q07DX002 (ip), vehicle: saline with Tween-80
[10] = dose: 50.0 mg/kg/injection, schedule: Q07DX002 (ip), vehicle: saline with Tween-80
[11] = dose: 100.0 mg/kg/injection, schedule: Q07DX002 (ip), vehicle: saline with Tween-80
[12] = dose: 200.0 mg/kg/injection, schedule: Q07DX002 (ip), vehicle: saline with Tween-80
[13] = dose: 800.0 mg/kg/injection, schedule: Q07DX002 (ip), vehicle: saline with Tween-80
[14] = dose: 6.25 mg/kg/injection, schedule: Q07DX002 (ip), vehicle: Klucel (hydroxypropylcellulose) (HPC)
[15] = dose: 12.5 mg/kg/injection, schedule: Q07DX002 (ip), vehicle: suspension in saline
[16] = dose: 25.0 mg/kg/injection, schedule: Q07DX002 (ip), vehicle: suspension in saline
[17] = dose: 12.5 mg/kg/injection, schedule: Q07DX002 (ip), vehicle: water
[18] = dose: 25.0 mg/kg/injection, schedule: Q07DX002 (ip), vehicle: water

For `Cc1c2oc3c(C)ccc(C(=O)NC4C(=O)NC(C(C)C)C(=O)N5CCCC5C(=O)N(C)CC(=O)N(C)C(C(C)C)C(=O)OC4C)c3nc-2c(C(=O)NC2C(=O)NC(C(C)C)C(=O)N3CCC3C(=O)N(C)CC(=O)N(C)C(C(C)C)C(=O)OC2C)c(N)c1=O` (configuration not stated) (I: TV[Aze][Sar][NMeV] / II: TVP[Sar][NMeV]; ester I:1-I:C, II:1-II:C; linker I:N-II:N via Actinocin(1to9); configuration not given here), the T/C (dose: 25.0 micrograms/kg/injection, schedule: Q07DX002 (ip), vehicle: saline) was 165 % of control, the T/C (dose: 37.5 micrograms/kg/injection, schedule: Q07DX002 (ip), vehicle: saline + alcohol) was 124 % of control and the T/C (dose: 50.0 micrograms/kg/injection, schedule: Q07DX002 (ip), vehicle: saline) was 80 % of control. The T/C (dose: 200.0 micrograms/kg/injection, schedule: Q07DX002 (ip), vehicle: saline) was 93 % of control, the T/C (dose: 400.0 micrograms/kg/injection, schedule: Q07DX002 (ip), vehicle: saline) was 51 % of control and the T/C (dose: 600.0 micrograms/kg/injection, schedule: Q07DX002 (ip), vehicle: saline + alcohol) was 48 % of control and 50 % of control and 73 % of control. For the same molecule, the T/C (dose: 800.0 micrograms/kg/injection, schedule: Q07DX002 (ip), vehicle: saline) was 21 % of control.
With `CC1=C(O)C(=O)[C@@H]2O[C@@H]2C1=O` the T/C [1] was 90 % of control, the T/C [2] was 106 % of control and the T/C (dose: 12.5 mg/kg/injection, schedule: Q07DX002 (ip), vehicle: saline) was 71 % of control.
For `CN(C)N=Nc1ccccc1`, the T/C [3] was 80 % of control and 86 % of control, the T/C [4] was 42 % of control and 49 % of control and the T/C [5] was 24 % of control and 27 % of control.
In the case of `O=S(=O)(O)O`, the T/C [4] is reported as 110 % of control, the T/C [6] is reported as 103 % of control and the T/C [5] is reported as 78 % of control. The T/C [7] was 112 % of control.
In the case of `OCC1OC(n2cnc3c(NO)ncnc32)C(O)C1O` (configuration not stated), the T/C [3] is reported as 88 % of control and 96 % of control, the T/C [4] is reported as 89 % of control and 91 % of control and the T/C [6] is reported as 121 % of control and 100 % of control. For the same molecule, the T/C [7] was 118 % of control and the T/C [8] was 96 % of control and 106 % of control.
With `C(C#CCN1CCOCC1)#CCN1CCOCC1` the T/C [4] was 80 % of control, the T/C [9] was 166 % of control and the T/C [6] was 60 % of control. The T/C [10] was 213 % of control, the T/C [5] was 65 % of control and the T/C [11] was 177 % of control. The T/C [7] was 49 % of control, the T/C [12] was 296 % of control and the T/C [8] was 94 % of control. For the same molecule, the T/C (dose: 400.0 mg/kg/injection, schedule: Q07DX002 (ip), vehicle: saline with Tween-80) was 285 % of control, the T/C (dose: 800.0 mg/kg/injection, schedule: Q07DX002 (ip), vehicle: Klucel (hydroxypropylcellulose) (HPC)) was 60 % of control and the T/C [13] was 262 % of control.
For `NC(CSC(c1ccccc1)(c1ccccc1)c1ccccc1)C(=O)O` (configuration not stated), the T/C (dose: 8.0 mg/kg/injection, schedule: Q07DX003 (ip), vehicle: Klucel (hydroxypropylcellulose) (HPC)) was 83 % of control, the T/C (dose: 8.0 mg/kg/injection, schedule: Q07DX003 (ip), vehicle: saline with Tween-80) was 78 % of control and the T/C (dose: 16.0 mg/kg/injection, schedule: Q07DX003 (ip), vehicle: Klucel (hydroxypropylcellulose) (HPC)) was 53 % of control. For the same molecule, the T/C (dose: 16.0 mg/kg/injection, schedule: Q07DX003 (ip), vehicle: saline with Tween-80) was 61 % of control, the T/C (dose: 32.0 mg/kg/injection, schedule: Q07DX003 (ip), vehicle: Klucel (hydroxypropylcellulose) (HPC)) was 64 % of control and the T/C (dose: 32.0 mg/kg/injection, schedule: Q07DX003 (ip), vehicle: saline with Tween-80) was 57 % of control. For the same molecule, the T/C (dose: 64.0 mg/kg/injection, schedule: Q07DX003 (ip), vehicle: Klucel (hydroxypropylcellulose) (HPC)) was 46 % of control, the T/C (dose: 64.0 mg/kg/injection, schedule: Q07DX003 (ip), vehicle: saline with Tween-80) was 75 % of control and the T/C (dose: 128.0 mg/kg/injection, schedule: Q07DX003 (ip), vehicle: Klucel (hydroxypropylcellulose) (HPC)) was 34 % of control. For the same molecule, the T/C (dose: 128.0 mg/kg/injection, schedule: Q07DX003 (ip), vehicle: saline with Tween-80) was 9 % of control and the T/C (dose: 256.0 mg/kg/injection, schedule: Q07DX003 (ip), vehicle: Klucel (hydroxypropylcellulose) (HPC)) was 17 % of control.
In the case of `CNC(=O)OCc1c(COC(=O)NC)c(C)n(-c2ccc(OC)cc2)c1C`, the T/C [14] is reported as 82 % of control, the T/C [3] is reported as 69 % of control and the T/C [6] is reported as 111 % of control. For the same molecule, the T/C [5] was 68 % of control and 93 % of control and the T/C [7] was 49 % of control.
In the case of `C[CH2][Ge]([CH2]C)[CH2]C.C[CH2][Ge]([CH2]C)[CH2]C.C[CH2][Ge]([CH2]C)[O][Ge]([CH2]C)[CH2]C`, the T/C (dose: 12.5 mg/kg/injection, schedule: Q07DX002 (ip), vehicle: saline with Tween-80) is reported as 80 % of control, the T/C [9] is reported as 90 % of control and the T/C [10] is reported as 87 % of control. For the same molecule, the T/C [11] was 68 % of control, the T/C [12] was 81 % of control and 95 % of control and the T/C [13] was 90 % of control.
With `Nc1nc(-c2ccccc2)c(Br)c(=O)[nH]1` the T/C [12] was 105 % of control and the T/C (dose: 1600.0 mg/kg/injection, schedule: Q07DX002 (ip), vehicle: saline with Tween-80) was 36 % of control and 43 % of control.
With `Cc1c2c(ccc3ccccc32)c[n+]2ccccc12` the T/C [1] was 154 % of control, the T/C [2] was 118 % of control and the T/C [15] was 102 % of control. For the same molecule, the T/C (dose: 25.0 mg/kg/injection, schedule: Q07DX002 (ip), vehicle: saline) was 107 % of control and the T/C [16] was 91 % of control.
`Nc1cc(Cl)c2[nH]cnc2n1` was tested, and the T/C [17] was 86 % of control, the T/C [18] was 119 % of control and the T/C (dose: 50.0 mg/kg/injection, schedule: Q07DX002 (ip), vehicle: distilled water + Tween-80) was 99 % of control. For the same molecule, the T/C (dose: 50.0 mg/kg/injection, schedule: Q07DX002 (ip), vehicle: water) was 82 % of control, the T/C (dose: 100.0 mg/kg/injection, schedule: Q07DX002 (ip), vehicle: distilled water + Tween-80) was 76 % of control and the T/C (dose: 100.0 mg/kg/injection, schedule: Q07DX002 (ip), vehicle: water) was 101 % of control. For the same molecule, the T/C (dose: 200.0 mg/kg/injection, schedule: Q07DX002 (ip), vehicle: distilled water + Tween-80) was 108 % of control, the T/C (dose: 200.0 mg/kg/injection, schedule: Q07DX002 (ip), vehicle: water) was 81 % of control and the T/C (dose: 400.0 mg/kg/injection, schedule: Q07DX002 (ip), vehicle: water) was 81 % of control.
For `CN(C)N=Nc1cn[nH]c1C(N)=O`, the T/C [14] was 102 % of control.
For `O=NN(CCCl)C(=O)NCCO`, the T/C (dose: 3.12 mg/kg/injection, schedule: Q07DX002 (ip), vehicle: water) was 75 % of control, the T/C [17] was 18 % of control and 34 % of control and the T/C [18] was 14 % of control.
`C=C(NC(=O)C(=C)NC(=O)c1csc(C2=NC3c4csc(n4)C4NC(=O)c5csc(n5)C(C(C)(O)C(C)O)NC(=O)C5CSC(=N5)/C(=C/C)NC(=O)C(C(C)O)NC(=O)c5csc(n5)C3(CC2)NC(=O)C(C)NC(=O)C(=C)NC(=O)C(=C)NC(=O)C(C(C)C)NC2C=Cc3c(C(C)O)cc(nc3C2O)C(=O)OC4C)n1)C(N)=O` (configuration not stated) was tested, and the T/C [15] was 95 % of control, the T/C [16] was 98 % of control and the T/C (dose: 50.0 mg/kg/injection, schedule: Q07DX002 (ip), vehicle: suspension in saline) was 111 % of control. The T/C (dose: 100.0 mg/kg/injection, schedule: Q07DX002 (ip), vehicle: suspension in saline) was 72 % of control, the T/C (dose: 200.0 mg/kg/injection, schedule: Q07DX002 (ip), vehicle: suspension in saline) was 75 % of control and the T/C (dose: 400.0 mg/kg/injection, schedule: Q07DX002 (ip), vehicle: suspension in saline) was 86 % of control.
